# Reference: ChEMBL document CHEMBL4190322, “Structure-based development of novel triazoles and related thiazolotriazoles as anticancer agents and Cdc25A/B phosphatase inhibitors. Synthesis, in vitro biological evaluation, molecular docking and in silico ADME-T studies” (Eur J Med Chem, 2017)
# The source made the active and inactive calls. No cut-off for these calls is given here.
# What was measured:
# LOX IMVI = experiment: Growth inhibition of human LOXIMVI cells at 10 uM after 48 hrs by SRB assay relative to control; format: functional; conditions: read-out: GI
# NCI/ADR-RES = experiment: Growth inhibition of human NCI/ADR-RES cells at 10 uM after 48 hrs by SRB assay relative to control; format: functional; conditions: read-out: GI
# K562 = experiment: Growth inhibition of human K562 cells at 10 uM after 48 hrs by SRB assay relative to control; format: functional; conditions: K562, 48 h, read-out: GI
# [1] = Cytotoxicity against human MCF10A cells after 24 hrs by MTT assay; format: cell-based, MCF-10A; conditions: read-out: LC50
# CCRF-CEM = experiment: Growth inhibition of human CCRF-CEM cells at 10 uM after 48 hrs by SRB assay relative to control; format: functional; conditions: read-out: GI
# OVCAR-8 = experiment: Growth inhibition of human OVCAR8 cells at 10 uM after 48 hrs by SRB assay relative to control; format: functional
# MOLT-4 = experiment: Growth inhibition of human MOLT4 cells at 10 uM after 48 hrs by SRB assay relative to control; format: functional; conditions: MOLT-4, 48 h, read-out: GI
# UACC-257 = experiment: Growth inhibition of human UACC257 cells at 10 uM after 48 hrs by SRB assay relative to control; format: functional
# SK-MEL-2 = experiment: Growth inhibition of human SK-MEL-2 cells at 10 uM after 48 hrs by SRB assay relative to control; format: functional; conditions: SK-MEL-2, 48 h, read-out: GI
# HOP-62 = experiment: Growth inhibition of human HOP62 cells at 10 uM after 48 hrs by SRB assay relative to control; format: functional; conditions: HOP-62, 48 h, read-out: GI
# OVCAR-3 = experiment: Growth inhibition of human OVCAR3 cells at 10 uM after 48 hrs by SRB assay relative to control; format: functional; conditions: OVCAR-3, 48 h, read-out: GI
# OVCAR-4 = experiment: Growth inhibition of human OVCAR4 cells at 10 uM after 48 hrs by SRB assay relative to control; format: functional; conditions: OVCAR-4, 48 h, read-out: GI
# SK-OV-3 = experiment: Growth inhibition of human SKOV3 cells at 10 uM after 48 hrs by SRB assay relative to control; format: functional; conditions: SK-OV-3, 48 h, read-out: GI
# SNB-19 = experiment: Growth inhibition of human SNB19 cells at 10 uM after 48 hrs by SRB assay relative to control; format: functional; conditions: SNB-19, 48 h, read-out: GI
# [2] = biological target: T1, M-phase inducer phosphatase 2 (Homo sapiens, UniProt P30305); experiment: Inhibition of human CDC25B using OMFP as substrate after 15 mins by fluorescence assay
# T1 sequence (P30305 whole entry): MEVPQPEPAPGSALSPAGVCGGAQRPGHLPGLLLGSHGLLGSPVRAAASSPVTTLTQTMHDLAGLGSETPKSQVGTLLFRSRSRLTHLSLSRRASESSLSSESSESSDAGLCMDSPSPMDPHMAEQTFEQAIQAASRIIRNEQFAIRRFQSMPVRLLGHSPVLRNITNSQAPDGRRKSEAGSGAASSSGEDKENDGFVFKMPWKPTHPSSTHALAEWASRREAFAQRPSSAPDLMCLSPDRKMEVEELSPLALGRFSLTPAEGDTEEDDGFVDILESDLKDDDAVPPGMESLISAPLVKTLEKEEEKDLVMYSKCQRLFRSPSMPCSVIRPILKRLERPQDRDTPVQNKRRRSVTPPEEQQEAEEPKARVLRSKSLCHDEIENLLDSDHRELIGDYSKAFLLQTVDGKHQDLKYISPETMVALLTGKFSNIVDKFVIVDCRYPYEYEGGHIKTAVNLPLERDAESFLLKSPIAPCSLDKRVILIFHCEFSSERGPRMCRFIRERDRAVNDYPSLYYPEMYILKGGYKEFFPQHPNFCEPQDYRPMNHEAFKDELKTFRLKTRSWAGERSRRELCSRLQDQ
# A498 = experiment: Growth inhibition of human A498 cells at 10 uM after 48 hrs by SRB assay relative to control; format: functional; conditions: A498, 48 h, read-out: GI
# UACC-62 = experiment: Growth inhibition of human UACC62 cells at 10 uM after 48 hrs by SRB assay relative to control; format: functional; conditions: UACC-62, 48 h, read-out: GI
# HL-60 = experiment: Growth inhibition of human HL60 cells at 10 uM after 48 hrs by SRB assay relative to control; format: functional
# KM12 = experiment: Growth inhibition of human KM12 cells at 10 uM after 48 hrs by SRB assay relative to control; format: functional; conditions: KM12, 48 h, read-out: GI
# SK-MEL-5 = experiment: Growth inhibition of human SK-MEL-5 cells at 10 uM after 48 hrs by SRB assay relative to control; format: functional; conditions: SK-MEL-5, 48 h, read-out: GI
# Malme-3M = experiment: Growth inhibition of human MALME-3M cells at 10 uM after 48 hrs by SRB assay relative to control; format: functional; conditions: read-out: GI
# [3] = biological target: T2, M-phase inducer phosphatase 1 (Homo sapiens, UniProt P30304); experiment: Inhibition of human CDC25A using OMFP as substrate after 15 mins by fluorescence assay
# T2 sequence (P30304 whole entry): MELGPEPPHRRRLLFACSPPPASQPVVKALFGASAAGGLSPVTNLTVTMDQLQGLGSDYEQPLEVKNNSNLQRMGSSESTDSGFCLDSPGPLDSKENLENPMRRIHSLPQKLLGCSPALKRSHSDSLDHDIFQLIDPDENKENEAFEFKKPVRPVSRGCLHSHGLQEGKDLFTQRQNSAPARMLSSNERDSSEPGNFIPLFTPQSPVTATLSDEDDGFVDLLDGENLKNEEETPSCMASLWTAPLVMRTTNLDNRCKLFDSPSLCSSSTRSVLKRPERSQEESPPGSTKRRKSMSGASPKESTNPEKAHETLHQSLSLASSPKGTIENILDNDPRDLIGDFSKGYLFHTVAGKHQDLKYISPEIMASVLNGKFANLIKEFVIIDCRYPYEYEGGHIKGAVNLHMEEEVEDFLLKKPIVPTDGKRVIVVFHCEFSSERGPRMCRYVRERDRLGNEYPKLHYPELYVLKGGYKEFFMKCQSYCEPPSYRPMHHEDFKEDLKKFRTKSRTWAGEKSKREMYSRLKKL
# SNB-75 = experiment: Growth inhibition of human SNB75 cells at 10 uM after 48 hrs by SRB assay relative to control; format: functional; conditions: SNB-75, 48 h, read-out: GI
# U-251 = experiment: Growth inhibition of human U251 cells at 10 uM after 48 hrs by SRB assay relative to control; format: functional; conditions: U-251, 48 h, read-out: GI
# HOP-92 = experiment: Growth inhibition of human HOP92 cells at 10 uM after 48 hrs by SRB assay relative to control; format: functional; conditions: HOP-92, 48 h, read-out: GI
# NCI-H23 = experiment: Growth inhibition of human NCI-H23 cells at 10 uM after 48 hrs by SRB assay relative to control; format: functional; conditions: NCI-H23, 48 h, read-out: GI
smiles,measurement,setting,value
COc1ccc(Cc2nnc(SCC(=O)Nc3ccc(Cl)cc3)n2Cc2ccccc2)cc1,inhibition of growth at 10 µM,LOX IMVI,12.2%
same,inhibition of growth at 10 µM,NCI/ADR-RES,14.3%
same,inhibition of growth at 10 µM,K562,34.5%
same,CC50 at 24 h,[1],> 100 µM
same,inhibition of growth at 10 µM,CCRF-CEM,22.4%
same,growth inhibition (GI),OVCAR-8,inactive
same,inhibition of growth at 10 µM,MOLT-4,36%
same,growth inhibition (GI),UACC-257,inactive
same,inhibition of growth at 10 µM,SK-MEL-2,17.2%
same,inhibition of growth at 10 µM,HOP-62,12%
same,inhibition of growth at 10 µM,OVCAR-3,3%
same,inhibition of growth at 10 µM,OVCAR-4,11.8%
same,inhibition of growth at 10 µM,SK-OV-3,16.2%
same,inhibition of growth at 10 µM,SNB-19,6.27%
same,IC50,[2],8.4 µM
same,inhibition of growth at 10 µM,A498,16%
same,inhibition of growth at 10 µM,UACC-62,38%
same,growth inhibition (GI),HL-60,inactive
same,inhibition of growth at 10 µM,KM12,16.7%
same,inhibition of growth at 10 µM,SK-MEL-5,4.45%
same,inhibition of growth at 10 µM,Malme-3M,5.6%
same,IC50,[3],14.1 µM
same,inhibition of growth at 10 µM,SNB-75,4%
same,inhibition of growth at 10 µM,U-251,5.5%
same,inhibition of growth at 10 µM,HOP-92,29.8%
same,inhibition of growth at 10 µM,NCI-H23,9%
